From patent US9260425B2 (Genetech, Inc., priority 2011, dated 2016)

Biological target: Pim-1 (Homo sapiens (Human), UniProt P11309)
Experiment: Pim kinase binding activity assay (Example 901), PIM-1 enzyme, Caliper microfluidic peptide phosphorylation
Format: biochemical
Conditions: 20 pM PIM-1, 10 μM ATP, 1 μM FAM-peptide, 90 minutes at room temperature
Method in brief: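 The readout was microfluidic mobility-shift separation of a FAM-tagged Pim-specific peptide, excited at 488 nm and read at 530 nm, with Ki calculated from percent conversion. Reactions held 20 pM PIM-1, 1 μM peptide and 10 μM ATP in pH 7.2 HEPES/MgCl2/DTT buffer, ran 90 min at room temperature and were stopped with EDTA.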

Chain of Pim-1 (P11309 whole entry): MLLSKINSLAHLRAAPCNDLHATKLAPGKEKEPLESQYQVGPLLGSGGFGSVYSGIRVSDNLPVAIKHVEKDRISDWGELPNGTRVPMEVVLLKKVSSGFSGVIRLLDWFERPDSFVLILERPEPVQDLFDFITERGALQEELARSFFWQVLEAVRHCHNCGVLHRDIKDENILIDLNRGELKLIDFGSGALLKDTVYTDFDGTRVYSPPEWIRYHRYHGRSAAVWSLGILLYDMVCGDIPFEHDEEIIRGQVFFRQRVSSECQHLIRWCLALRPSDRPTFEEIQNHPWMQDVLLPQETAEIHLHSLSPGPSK

| Ki | Compound |
| --- | --- |
| 0.04 nM | CCn1cc(-c2cc3c(-c4cccc(N5CCNCC(CO)C5)n4)n[nH]c3cn2)cn1 (centres unmarked) [Example 512, (1-(6-(5-(1-ethyl-1H-pyrazol-4-yl)-1H-pyrazolo[3,4-c]pyridin-3-yl)pyridin-2-yl)-1,4-diazepan-6-yl)methanol] |
| 0.034 nM | CCn1cc(-c2cc3c(-c4cccc(N5CCC[C@H](N)CC5)n4)n[nH]c3cn2)cn1 [Example 481, (S)-1-(6-(5-(1-ethyl-1H-pyrazol-4-yl)-1H-pyrazolo[3,4-c]pyridin-3-yl)pyridin-2-yl)azepan-4-amine] |
| 0.0593 nM | CCn1cc(-c2cc3c(-c4cccc(NC5CCCC(N)C5)n4)n[nH]c3cn2)cn1 (centres unmarked) [Example 461, N1-(6-(5-(1-ethyl-1H-pyrazol-4-yl)-1H-pyrazolo[3,4-c]pyridin-3-yl)pyridin-2-yl)cyclohexane-1,3-diamine] |
| 0.311 nM | CCn1cc(-c2cc3c(-c4cccc(N5CCN(C6COC6)CC5)n4)n[nH]c3cn2)cn1 [Example 480, 5-(1-ethyl-1H-pyrazol-4-yl)-3-(6-(4-(oxetan-3-yl)piperazin-1-yl)pyridin-2-yl)-1H-pyrazolo[3,4-c]pyridine] |
| 0.014 nM | CCn1cc(-c2cc3c(-c4cccc(N5CCNC[C@@H](O)C5)n4)n[nH]c3cn2)cn1 [Example 411, (R)-1-(6-(5-(1-ethyl-1H-pyrazol-4-yl)-1H-pyrazolo[3,4-c]pyridin-3-yl)pyridin-2-yl)-1,4-diazepan-6-ol] |
| 0.089 nM | OC1CN(c2cccc(-c3n[nH]c4cnc(-c5cccnc5)cc34)n2)CCC1F (centres unmarked) [Example 435, 4-fluoro-1-(6-(5-(pyridin-3-yl)-1H-pyrazolo[3,4-c]pyridin-3-yl)pyridin-2-yl)piperidin-3-ol] |
| 0.073 nM | CCn1cc(-c2cc3c(-c4cccc(N5CCC[C@@H](N)CC5)n4)n[nH]c3cn2)cn1 [Example 471, (R)-1-(6-(5-(1-ethyl-1H-pyrazol-4-yl)-1H-pyrazolo[3,4-c]pyridin-3-yl)pyridin-2-yl)azepan-4-amine] |
| 0.081 nM | CCn1cc(-c2cc3c(-c4cccc(N5CCN[C@@H](C)C5)n4)n[nH]c3cn2)cn1 [Example 396, (S)-5-(1-ethyl-1H-pyrazol-4-yl)-3-(6-(3-methylpiperazin-1-yl)pyridin-2-yl)-1H-pyrazolo[3,4-c]pyridine] |
| 0.55 nM | CCn1cc(-c2cc3c(-c4cccc(N5CC[C@@H](F)[C@H](N)C5)n4)n[nH]c3cn2)cn1 (relative stereo) [Example 462, trans-1-(6-(5-(1-ethyl-1H-pyrazol-4-yl)-1H-pyrazolo[3,4-c]pyridin-3-yl)pyridin-2-yl)-4-fluoropiperidin-3-amine] |
| 0.029 nM | CCn1cc(-c2cc3c(-c4cccc(N5CCNCC(F)(F)C5)n4)n[nH]c3cn2)cn1 [Example 447, 3-(6-(6,6-difluoro-1,4-diazepan-1-yl)pyridin-2-yl)-5-(1-ethyl-1H-pyrazol-4-yl)-1H-pyrazolo[3,4-c]pyridine] |
| 0.02 nM | CCn1cc(-c2cc3c(-c4cccc(N5CCCNCC5)n4)n[nH]c3cn2)cn1 [Example 409, 3-(6-(1,4-diazepan-1-yl)pyridin-2-yl)-5-(1-ethyl-1H-pyrazol-4-yl)-1H-pyrazolo[3,4-c]pyridine] |
| 0.06 nM | CCn1cc(-c2cc3c(-c4cccc(N5CCNC(C(F)(F)F)C5)n4)n[nH]c3cn2)cn1 (centres unmarked) [Example 468, 5-(1-ethyl-1H-pyrazol-4-yl)-3-(6-(3-(trifluoromethyl)piperazin-1-yl)pyridin-2-yl)-1H-pyrazolo[3,4-c]pyridine] |

Continued, compound first:

| Compound | Ki |
| --- | --- |
| c1cncc(-c2cc3c(N4CCC(N5CCNCC5)C4)n[nH]c3cn2)c1 (centres unmarked) [Example 320, 3-(3-(piperazin-1-yl)pyrrolidin-1-yl)-5-(pyridin-3-yl)-1H-pyrazolo[3,4-c]pyridine] | 3.86 nM |
| Cn1cc(-c2cc3c(-c4cnn(CC(C)(C)O)c4)n[nH]c3cn2)cn1 [Example 250, 2-methyl-1-(4-(5-(1-methyl-1H-pyrazol-4-yl)-1H-pyrazolo[3,4-c]pyridin-3-yl)-1H-pyrazol-1-yl)propan-2-ol] | 0.389 nM |
| Cc1ccc(-c2n[nH]c3cnc(-c4cccnc4)cc23)nc1N1CCC[C@@H](N)C1 [Example 310, (R)-1-(3-methyl-6-(5-(pyridin-3-yl)-1H-pyrazolo[3,4-c]pyridin-3-yl)pyridin-2-yl)piperidin-3-amine] | 0.137 nM |
| CCn1cc(-c2cc3c(-c4cc(C#N)cc(N5CCCNCC5)n4)n[nH]c3cn2)cn1 [Example 490, 2-(1,4-diazepan-1-yl)-6-(5-(1-ethyl-1H-pyrazol-4-yl)-1H-pyrazolo[3,4-c]pyridin-3-yl)isonicotinonitrile] | 0.107 nM |
| N[C@@H]1CCCN(c2ccc(-c3n[nH]c4cnc(-c5cccnc5)cc34)cn2)C1 [Example 191, (R)-1-(5-(5-(pyridin-3-yl)-1H-pyrazolo[3,4-c]pyridin-3-yl)pyridin-2-yl)piperidin-3-amine] | 0.404 nM |
| c1cc(-c2n[nH]c3cnc(-n4ccnc4)cc23)nc(N2CCCCC2)c1 [Example 363, 5-(1H-imidazol-1-yl)-3-(6-(piperidin-1-yl)pyridin-2-yl)-1H-pyrazolo[3,4-c]pyridine] | 2.41 nM |
| CCc1ccnc(-c2n[nH]c3cnc(-c4cnn(CC)c4)cc23)c1 [Example 493, 5-(1-ethyl-1H-pyrazol-4-yl)-3-(4-ethylpyridin-2-yl)-1H-pyrazolo[3,4-c]pyridine] | 43.6 nM |
| Cn1cc(-c2cc3c(-c4cccc(C5CCNCC5)n4)n[nH]c3cn2)cn1 [Example 247, 5-(1-methyl-1H-pyrazol-4-yl)-3-(6-(piperidin-4-yl)pyridin-2-yl)-1H-pyrazolo[3,4-c]pyridine] | 0.224 nM |
| C1=C(c2n[nH]c3cnc(-c4cccnc4)cc23)CCO1 [Example 284, 3-(4,5-dihydrofuran-3-yl)-5-(pyridin-3-yl)-1H-pyrazolo[3,4-c]pyridine] | 10.6 nM |
| Cc1n[nH]c2cnc(-c3ccn[nH]3)cc12 [Example 103, 3-methyl-5-(1H-pyrazol-5-yl)-1H-pyrazolo[3,4-c]pyridine] | 1300 nM |
| OC1(c2cccc(-c3n[nH]c4cnc(-c5cccnc5)cc34)n2)CCNCC1 [Example 422, 4-(6-(5-(pyridin-3-yl)-1H-pyrazolo[3,4-c]pyridin-3-yl)pyridin-2-yl)piperidin-4-ol] | 300 nM |
| Cn1cc(-c2cc3c(-c4cccc(NC5CCNCC5)n4)n[nH]c3cn2)cn1 [Example 200, 6-(5-(1-methyl-1H-pyrazol-4-yl)-1H-pyrazolo[3,4-c]pyridin-3-yl)-N-(piperidin-4-yl)pyridin-2-amine] | 0.092 nM |
| N[C@@H]1CCCN(c2nc(-c3n[nH]c4cnc(-c5cccnc5)cc34)ccc2Br)C1 [Example 290, (R)-1-(3-bromo-6-(5-(pyridin-3-yl)-1H-pyrazolo[3,4-c]pyridin-3-yl)pyridin-2-yl)piperidin-3-amine] | 0.082 nM |
| Cn1cc(-c2cc3c(-c4ccc(Br)c(N5CCC[C@@H](O)C5)n4)n[nH]c3cn2)cn1 [Example 394, (R)-1-(3-bromo-6-(5-(1-methyl-1H-pyrazol-4-yl)-1H-pyrazolo[3,4-c]pyridin-3-yl)pyridin-2-yl)piperidin-3-ol] | 0.316 nM |
| CCn1cc(-c2cc3c(-c4ccc(C5CC5)c(N5CCC[C@H](N)C5)n4)n[nH]c3cn2)cn1 [Example 506, (S)-1-(3-cyclopropyl-6-(5-(1-ethyl-1H-pyrazol-4-yl)-1H-pyrazolo[3,4-c]pyridin-3-yl)pyridin-2-yl)piperidin-3-amine] | 0.021 nM |
| C=Cc1ccc(-c2n[nH]c3cnc(-c4cnn(CC)c4)cc23)nc1N1CCC[C@H](N)C1 [Example 431, (S)-1-(6-(5-(1-ethyl-1H-pyrazol-4-yl)-1H-pyrazolo[3,4-c]pyridin-3-yl)-3-vinylpyridin-2-yl)piperidin-3-amine] | 0.023 nM |
| Fc1ccccc1-c1n[nH]c2cnc(-c3cnccc3OC[C@@H]3CCNC3)cc12 [Example 209, (R)-3-(2-fluorophenyl)-5-(4-(pyrrolidin-3-ylmethoxy)pyridin-3-yl)-1H-pyrazolo[3,4-c]pyridine] | 0.189 nM |
| Cc1n[nH]c2cnc(-c3cnccc3N3CCC[C@H](N)C3)cc12 [Example 112, (S)-1-(3-(3-methyl-1H-pyrazolo[3,4-c]pyridin-5-yl)pyridin-4-yl)piperidin-3-amine] | 3500 nM |
| CN1CCN(c2cc3c(-c4ccccn4)n[nH]c3cn2)CC1=O [Example 351, 1-methyl-4-(3-(pyridin-2-yl)-1H-pyrazolo[3,4-c]pyridin-5-yl)piperazin-2-one] | 4800 nM |
| NC(=O)Nc1cc2c(-c3cccc(N4CCC[C@H](N)C4)n3)n[nH]c2cn1 [Example 298, (S)-1-(3-(6-(3-aminopiperidin-1-yl)pyridin-2-yl)-1H-pyrazolo[3,4-c]pyridin-5-yl)urea] | 14.1 nM |
| c1cncc(-c2cc3c(-c4cccc(N5CCCNCC5)n4)n[nH]c3cn2)c1 [Example 187, 3-(6-(1,4-diazepan-1-yl)pyridin-2-yl)-5-(pyridin-3-yl)-1H-pyrazolo[3,4-c]pyridine] | 0.015 nM |
| N[C@H]1CCCN(Cc2n[nH]c3cnc(-c4cn[nH]c4)cc23)C1 [Example 111, (S)-1-((5-(1H-pyrazol-4-yl)-1H-pyrazolo[3,4-c]pyridin-3-yl)methyl)piperidin-3-amine] | 4000 nM |
| Cc1ccc(F)c(-c2n[nH]c3cnc(-c4cnn(C)c4)cc23)c1 [Example 205, 3-(2-fluoro-5-methylphenyl)-5-(1-methyl-1H-pyrazol-4-yl)-1H-pyrazolo[3,4-c]pyridine] | 6.08 nM |
| CCn1cc(-c2cc3c(-c4ccc(Br)c(N5CCNCC5)n4)n[nH]c3cn2)cn1 [Example 404, 3-(5-bromo-6-(piperazin-1-yl)pyridin-2-yl)-5-(1-ethyl-1H-pyrazol-4-yl)-1H-pyrazolo[3,4-c]pyridine] | 0.09 nM |
| c1cncc(-c2cc3c(C4CCCC4)n[nH]c3cn2)c1 [Example 228, 3-cyclopentyl-5-(pyridin-3-yl)-1H-pyrazolo[3,4-c]pyridine] | 43 nM |
| N#Cc1cc2c(-c3cccc(N4CCC[C@@H](N)C4)n3)n[nH]c2cn1 [Example 398, (R)-3-(6-(3-aminopiperidin-1-yl)pyridin-2-yl)-1H-pyrazolo[3,4-c]pyridine-5-carbonitrile] | 39.1 nM |
